Tests used:
Sprague-Dawley rats [1] = test: Acute toxicity test, oral administration; format: in vivo; settings: oral, 50, 100 and 200 mg/kg, observed for 2 weeks, vs control group
Sprague-Dawley rats [2] = test: Acute toxicity test, peritoneal administration; format: in vivo; settings: peritoneal, 50, 100 and 200 mg/kg, observed for 2 weeks, vs control group
AMPK = test: Determination of AMPK activation in C2C12 myoblast cells (SAMS peptide, [γ-32P]ATP); format: cell-based; settings: differentiated C2C12 myoblast cells, 5 μg/ml, compared with control (DMSO 0.5% = 1)
Protocol: Myoblast cells, C2C12, were cultured in DMEM containing 10% bovine calf serum. When a cell density reached a range of about 85% to 90%, the culture medium was replaced with a medium containing 1% bovine calf serum to induce differentiation of cells. The thus-differentiated myoblast cells were treated with samples synthesized in Examples 1 through 29 at a concentration of 5 μg/ml, and compared with a control group. Enzymatic activity of AMPK was determined as follows. Firstly, C2C12 cells were lysed to obtain protein extracts and then ammonium sulfate was added to a final concentration of 30%, thereby precipitating proteins. Protein precipitates were dissolved in a buffer (62.5 mM Hepes, pH 7.2, 62.5 mM NaCl, 62.5 mM NaF, 1.25 mM Na pyrophosphate, 1.25 mM EDTA, 1 mM DTT, 0.1 mM PMSF, and 200 μM AMP). Thereafter, 200 μM SAMS peptide (HMRSAMSGLHLVKRR: the underlined serine residue is a phosphorylation site, as an AMPK phosphorylation site of acetyl-CoA carboxylase) and [γ-32P]ATP were added thereto and reactants were reacted for 10 minutes at 30° C. This was followed by spotting of the resulting reaction solution on p81 phosphocellulose paper. The p81 paper was washed with a 3% phosphoric acid solution and radioactivity thereof was measured. For each reaction condition, reactions involving no SAMS peptide were also conducted and basic values were subtracted from the thus-observed values.

[3] = test system: C57BL/6JL Lep ob/Lep ob mice; test: Blood lipid, glucose and enzyme levels in obese mice (ob/ob); format: in vivo; design: unit not given here; settings: 100 mg/kg for 26 days
Source text: (§1) 10-week-old C57BL/6JL Lep ob/Lep ob male mice having obesity characteristics and predisposition were purchased from Daehan Biolink Co., Ltd. (Chungchongbuk-do, Korea). Animals were raised in a breeding room maintained at a temperature of 23 C, 55% humidity, illumination of 300 to 500 lux, a 12-h light/dark (L/D) cycle, and ventilation of 10 to 18 times/hr. Animals were fed ad libitum pellets of Purina Rodent Laboratory Chow 5001 (purchased from Purina Mills Inc., St. Louis, Mo., USA) as a solid feed for experimental animals and tap water as drinking water. Mice were allowed to acclimate to new environment of the breeding room for two weeks and were then administered some pyrano-o-naphthoquinone and furano-o-naphthoquinone derivatives synthesized according to the present invention at doses of 100 mg/kg for 26 days. Observation was made on changes in body weight, blood glucose and dietary intake, with respect to a time course of administration. After administration was complete, Computed Tomography (CT) was performed to confirm changes in adipose tissue distribution of animals, changes in fat distribution of tissues in various organs, changes in sizes of adipocytes, and changes in glucose, lipid and enzyme levels in blood and liver.

[4] = test system: C57BL/6JL Lep ob/Lep ob mice; test: Weight loss effects in obese mice (ob/ob): body weight; format: in vivo; settings: 100 mg/kg for 26 days; for change in vivo at 100 mg/kg: Mus musculus, 624 h, read-out: Increase in BW
Source text: as §1

SMILES	visually observable symptoms (Sprague-Dawley rats [1])	visually observable symptoms (Sprague-Dawley rats [2])	AMPK fold (AMPK)	Cholesterol [3]	GOT [3]	GPT [3]	Glucose [3]	Triglyceride [3]	Final BW [4]	change in vivo at 100 mg/kg [4]
CC(C)=CC1(C)CCC2=C(O1)c1ccccc1C(=O)C2=O (centres unmarked) [Compound 13]	no visually observable symptoms with exception of weight loss	no visually observable symptoms with exception of weight loss	2.3 fold							
C[C@H]1OC2=C(C(=O)C(=O)c3ccccc32)[C@@H]1C [Compound 16]	no visually observable symptoms with exception of weight loss	no visually observable symptoms with exception of weight loss	2.5 fold							
Cc1ccc2c(c1)C1=C(CCC(C)(C)O1)C(=O)C2=O [Compound 22]			1.9 fold	132	57	49	142	168	48.7 g	-16.5%
C=C1OC2=C(C(=O)C(=O)c3ccccc32)C1(C)C [Compound 9]			2.6 fold							
CC1CC2=C(O1)c1ccccc1C(=O)C2=O (centres unmarked) [Compound 5]			1.3 fold	117	38	29	112	137	36.1 g	-39.5%
CC1OC2=C(C(=O)C(=O)c3ccccc32)C1c1ccccc1 (centres unmarked) [Compound 8]			1.9 fold							
COC1(C)OC2=C(C(=O)C(=O)c3ccccc32)C1(C)C (centres unmarked) [Compound 10]			1.6 fold							
CCC1CC2=C(O1)c1ccccc1C(=O)C2=O (centres unmarked) [Compound 19]			2.1 fold							
CC1CCC2=C(O1)c1ccccc1C(=O)C2=O (centres unmarked) [Compound 18]			2.3 fold							
CC1C2=C(OC1(C)C)c1ccccc1C(=O)C2=O (centres unmarked) [Compound 3]	no visually observable symptoms with exception of weight loss	no visually observable symptoms with exception of weight loss	3.2 fold	128	36	32	122	129	39.7 g	-27.9%
CC(C)=C/C(C)=C/C1(C)CCC2=C(O1)c1ccccc1C(=O)C2=O (centres unmarked) [Compound 14]	no visually observable symptoms with exception of weight loss	no visually observable symptoms with exception of weight loss	1.5 fold	160	95	87	193	216	61.3 g	-4.7%
CC1(C)C=CC2=C(O1)c1ccccc1C(=O)C2=O [Compound 11]			1.3 fold							
O=C1C(=O)c2ccccc2C2=C1CCC(c1ccccc1)O2 (centres unmarked) [Compound 7]			2.2 fold							
C[C@@H]1C2=C(O[C@@H]1C)c1ccccc1C(=O)C2=O [Compound 17]	no visually observable symptoms with exception of weight loss	no visually observable symptoms with exception of weight loss	2.2 fold							
C=CC1(C)CCC2=C(O1)c1ccccc1C(=O)C2=O (centres unmarked) [Compound 12]	no visually observable symptoms with exception of weight loss	no visually observable symptoms with exception of weight loss	2.1 fold							
Cc1ccc2c(c1)-c1occ(C)c1C(=O)C2=O [Compound 32]			1.3 fold							
O=C1C(=O)c2ccccc2C2=C1CCO2 [Compound 6]			2.2 fold							
Cc1ccc2c(c1)C(=O)C(=O)c1c(C)coc1-2 [Compound 31]			1.2 fold							
Cc1cc2c(o1)-c1ccccc1C(=O)C2=O [Compound 29]			1.3 fold							
CC1(C)CC2=C(O1)c1ccccc1C(=O)C2=O [Compound 4]	no visually observable symptoms with exception of weight loss	no visually observable symptoms with exception of weight loss	2.2 fold	130	48	44	134	148	40.0 g	-27.8%
Cc1coc2c1C(=O)C(=O)c1ccccc1-2 [Compound 30]			1.2 fold							
CCC1(CC)CCC2=C(O1)c1ccccc1C(=O)C2=O [Compound 25]	no visually observable symptoms with exception of weight loss	no visually observable symptoms with exception of weight loss	1.8 fold							
CCC1(C)CCC2=C(O1)c1ccccc1C(=O)C2=O (centres unmarked) [Compound 24]	no visually observable symptoms with exception of weight loss	no visually observable symptoms with exception of weight loss	2.1 fold							
CC1(C)CCCC2(C)OC3=C(CC12)C(=O)C(=O)c1ccccc13 (centres unmarked) [Compound 20]			2.3 fold							
CC1(C)CCC2=C(O1)c1cc(Cl)ccc1C(=O)C2=O [Compound 21]			2.2 fold	127	46	39	127	138	41.1 g	-28.3%
CC1OC2=C(C(=O)C(=O)c3ccccc32)C1(C)C (centres unmarked) [Compound 2, Dunnione]	no visually observable symptoms with exception of weight loss	no visually observable symptoms with exception of weight loss	1.4 fold	123	50	43	125	154	28.7 g	-46.2%
CC1(c2ccccc2)CCC2=C(O1)c1ccccc1C(=O)C2=O (centres unmarked) [Compound 26]	no visually observable symptoms with exception of weight loss	no visually observable symptoms with exception of weight loss	2.2 fold	128	40	33	131	137	42.3 g	-25.5%
O=C1C(=O)c2ccccc2C2=C1CCC1(CCCCC1)O2 [Compound 27]			1.7 fold							
O=C1C(=O)c2ccccc2C2=C1CCC1(CCCC1)O2 [Compound 28]			1.7 fold							

Reference: patent US9066922B2, “Pharmaceutical composition for the treatment or prevention of diseases involving obesity, diabetes, metabolic syndrome, neuro-degenerative diseases and mitochondria dysfunction diseases” (MD BIOALPHA CO., LTD., priority 2005, dated 2015)
